# According to patent US20110171285A1, “Design of Fibrinogen and Fibrinogen Derived Products with Reduced Bacterial Binding by Using Modified Sequences of Fibrinogen Chains” (priority 2009, published 2011):
# pKd: −log10 of the molar value. Ends that are not written are not given here.
# What was measured:
# [1] = target: T1, rClfA229-545 (Staphylococcus aureus, UniProt Q53653); assay: Isothermal titration calorimetry of Fg γ-peptide binding to rClfA229-545
# T1 construct: 6xHis; made in house; host or cells: E. coli
# T1 sequence (Q53653 229-545): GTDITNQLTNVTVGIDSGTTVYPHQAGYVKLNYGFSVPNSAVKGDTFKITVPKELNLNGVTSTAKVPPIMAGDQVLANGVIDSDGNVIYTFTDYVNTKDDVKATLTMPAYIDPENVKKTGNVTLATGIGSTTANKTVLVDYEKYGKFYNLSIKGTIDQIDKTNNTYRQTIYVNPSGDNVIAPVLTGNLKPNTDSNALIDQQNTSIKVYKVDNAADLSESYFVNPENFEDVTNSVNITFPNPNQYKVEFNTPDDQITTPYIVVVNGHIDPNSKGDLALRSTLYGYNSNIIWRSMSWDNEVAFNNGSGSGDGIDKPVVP
# Protocol: Peptide 0.6-0.9 mM was injected into a cell with rClfA229-545 in a VP-ITC (MicroCal Inc.). The resulting data was analyzed using Origin 5.0 from MicroCal using a single binding site model.
# [2] = system: S. aureus USA300 NARSA; assay: Adherence of S. aureus USA300 NARSA to Fg coated microtiter plates (crystal violet, OD 590 nm); type: cell-based; details: 1 μg Fg/well, MRSA strain grown over-night in tryptic soy broth (FIG. 7)
# Protocol: Microtiter plates were coated with 1 μg human or salmon Fg per well over-night at 4° C., followed by blocking with 5% bovine serum albumin in TBS-T (Tris-buffered saline with 0.05% Tween-20) in room temperature for about 1 hour. Two bacterial colonies (designated by 1 or 2 in FIG. 7) of S. aureus USA300 NARSA (an MRSA strain) were inoculated in tryptic soy broth at 37° C. over-night, washed and resuspended in PBS and various bacterial dilutions were incubated in the wells for 1 hour at room temperature. After washing in PBS, bound bacteria was fixed using 25% formaldehyde followed by 0.5% crystal violet stain. After PBS washing, 10% acetic acid was added and bound color was measured by crystal violet staining and optical density read at 590 nm in a microtiter plate reader.
# [3] = target: ClfA229-545 (Staphylococcus aureus, UniProt Q53653); details: 1 μg Fg/well, varying concentrations of ClfA229-545, read at 405 nm (FIG. 6)
# Protocol: About 3 mg lyophilized salmon Fg (batch “A”) was dissolved into 3 mg/ml in PBS. Human and salmon Fg was coated onto 4HBX microtiter plates (1 μg/well) at 4° C. over-night in Dulbecco's PBS without MgCl2 nor CaCl2 ions). The plate was blocked for 1 hour room temperature (RT) using 5% bovine serum albumin (BSA) in TBS-T. Recombinant His-tagged ClfA229-545 was added in varying concentrations to test for binding to Fg using TBS solution for 1 hour at room temperature. Bound ClfA was detected with anti-ClfA rabbit antibodies (dil 1:2000) in TBS-T with 1% BSA followed by goat anti-rabbit secondary antibodies (dil 1:2000) conjugated to alkaline phosphatase using the same buffer. Color detection was read after 30-60 min at 405 nm in a microtiter plate reader using phospatase substrate from Sigma dissolved in 1M DEA. No background subtraction, data points are triplicates except for no ClfA where six data points were used. Human or salmon Fg was coated over-night and after blocking varying concentrations of ClfA was added to Fg.
Substance,pKd [1],"binding to ClfA229-545 ([1]; ITC, in solution (FIGS. 3A and 3B))",binding (adherence) of S. aureus USA300 to coated Fg [2],binding of ClfA N2N3 to coated Fg [3]
GEGQQHHLGGAKQAGDV [human 17-mer peptide],4.64,–,–,–
GQQHHLGGAKQAGDV [human 15-mer peptide],4.40,binds to ClfA,–,–
human Fg: human fibrinogen,–,–,bound,dose-dependent binding
